Assay results reported in patent US5167824A, “Separation by carrier mediated transport” (priority 1990, dated 1992).
Like-named read-outs stand apart in the source and are kept apart here.

Assays:
[1] = organic solvents such as toluene; cited from earlier work
26-10 Fab = assay type: binding, murine
Procedure: (§1) After the plates were washed and blocked with 1% horse serum in PBSA, solutions ([…]) containing 26-10 Fab or the BABS in either PBSA or 0.01 M sodium acetate at pH 5.5 were added to the wells and incubated 2-3 hrs at room temperature.

[2] = test system: biosynthetic protein (FB-sFv 26-10); experiment: Inhibition of 125I-dig-lysine binding by unlabelled cardiac glycosides; parameters: species or system murine; conditions: unlabelled glycoside; compared with parent 26-10 Fab
Source text: Properties of the binding site were probed by a modification of an assay developed by Mudgett-Hunter et al. (J. Immunol. (1982) 129:1165-1172; Molec. Immunol. (1985) 22:477-488), so that it could be run on microtiter plates as a solid phase sandwich assay. Binding data were collected using goat anti-murine Fab antisera (gAmFab) as the primary antibody that initially coats the wells of the plate. These are polyclonal antisera which recognize epitopes that appear to reside mostly on framework regions.
These are polyclonal antisera which recognize epitopes that appear to reside mostly on framework regions.

BABS = experiment: Radioimmunoassay, inhibition of 125I-digoxin binding to BABS by cardiac glycosides; parameters: species or system murine
Procedure: as §1

[3] = Partition coefficient of oleandrin; assay type: physicochemical; conditions: 1-octanol and water; read-out: aqueous to organic coefficient S
[4] = Oleandrin transport through supported liquid membrane without binding protein; conditions: absence of binding protein
Source text: (§2) A hollow fiber device was constructed using 100×17.8 cm PAN fibers, produced by Sepracor, Inc., Marlborough, Mass. Each PAN fiber is a tubular membrane having a wall thickness of 50 μm and an internal diameter of 205 μm. Thus, this device contains a geometric surface area of 115 cm^2 of PAN fiber. The associated fluid handling equipment comprised two peristaltic pumps, one for the shell loop and one for the luman loop, a pressure gauge on the shell loop for determining the pressure drop from the shell side to the lumen side, and a throttling valve for creating a positive pressure on the shell side.
The device was first washed with 1 L of water. This washing involved convecting water through the lumen, through the shell, and through the PAN fibers from shell-side to lumen.
Following the washing procedure, the liquid membrane was put in place. A buffer solution of the same composition as that in which the FB-sFv protein was dissolved (50 mM sodium chloride) was pumped through the fibers, from the shell-side to the lumen. Approximately 100 mls of buffer solution were convected through the fibers. […]
Oleandrin is a cardiac glycoside having a molecular weight of 576, and an organic to aqueous partition coefficient between 1-octanol and water of 338 (Cohnen et al, Drug Res. 28 (II), Heft 12, 1978). […] The quantity of oleandrin contained in each lumen reservoir sample was determined by HPLC.

FB-sFv 26-10 = experiment: Oleandrin facilitated transport through supported liquid membrane containing FB-sFv 26-10; parameters: species or system murine
Source text: as §2
The fluid loops were then drained. 100 mls of buffer containing 10.0 mgs of FB-sFv 26-10 produced as disclosed above were then slowly ultrafiltered from the shell loop at a pressure of 10 psi. […] After this time, no bulk fluid, either aqueous or organic, was present in either loop. […] Since an optical density of 1.0 at 280 nm indicates a protein concentration of 1.0 mg/ml, the filtrate contained 4.0 mgs protein. 6.0 mgs of FB-sFv 26-10 were therefore assumed to be contained in the supported liquid membrane.
Octanol saturated with buffer, but not containing oleandrin, was then convected through each loop, with the 10 psi pressure differential across the supported liquid membrane. Once uninterrupted convection through each loop was established, the shell loop reservoir was replaced with a reservoir containing 500 mls of octanol saturated with buffer, and containing 2.0 mg/ml oleandrin. The lumen reservoir was replaced with a reservoir containing 50 mls of buffer saturated octanol, containing no oleandrin. Over a 24 hour period, no convective flow of octanol through the supported liquid membrane occurred.
During this period, successive 1 ml samples of the lumen reservoir were taken. In order not to disturb the volume of the lumen reservoir, the octanol taken in each sample was replaced with 1 ml of buffer saturated octanol after drawing each sample. The quantity of oleandrin contained in each lumen reservoir sample was determined by HPLC.

[5] = 1-octanol and water; cited from earlier work
[6] = normalizing glycoside digoxigenin

SMILES: CCOC(=O)C(C)c1ccc2cc(OC)ccc2c1 (racemic) [racemic ethyl ester of naproxen, ethyl ester of naproxen]
- solubility in organic solvents [1]: to the extent of moles per liter

SMILES: CC(=O)OC1CCC2(C=O)C3CCC4(C)C(C5=CC(=O)OC5)CCC4(O)C3CCC2(O)C1 (centres unmarked) [Acetyl Strophanthidin, acetyl strophanthidin]
- normalized concentration of inhibitor giving 50% inhibition of 125I-digoxin binding (26-10 Fab; [6]): 1.1
- normalized concentration of inhibitor giving 50% inhibition of 125I-digoxin binding (26-10 Fab; normalizing glycoside digoxin): 1.3
- inhibition of binding of 125I-dig-lysine [2]: can be inhibited
- normalized concentration of inhibitor giving 50% inhibition of 125I-digoxin binding (BABS; [6]): 0.8
- normalized concentration of inhibitor giving 50% inhibition of 125I-digoxin binding (BABS; normalizing glycoside digoxin): 5.9

SMILES: C[C@]12CC[C@H](O)C[C@H]1CC[C@@H]1[C@@H]2CC[C@]2(C)[C@@H](C3=CC(=O)OC3)CC[C@]12O [Digitoxigenin, digitoxigenin]
- normalized concentration of inhibitor giving 50% inhibition of 125I-digoxin binding (26-10 Fab; [6]): 0.9
- normalized concentration of inhibitor giving 50% inhibition of 125I-digoxin binding (26-10 Fab; normalizing glycoside digoxin): 1.0
- inhibition of binding of 125I-dig-lysine [2]: can be inhibited
- normalized concentration of inhibitor giving 50% inhibition of 125I-digoxin binding (BABS; [6]): 0.4
- normalized concentration of inhibitor giving 50% inhibition of 125I-digoxin binding (BABS; normalizing glycoside digoxin): 2.6

SMILES: C[C@H]1O[C@@H](O[C@H]2[C@@H](O)C[C@H](O[C@H]3[C@@H](O)C[C@H](O[C@H]4CC[C@@]5(C)[C@H](CC[C@@H]6[C@@H]5CC[C@]5(C)[C@@H](C7=CC(=O)OC7)CC[C@]65O)C4)O[C@@H]3C)O[C@@H]2C)C[C@H](O)[C@@H]1O [Digitoxin, digitoxin]
- normalized concentration of inhibitor giving 50% inhibition of 125I-digoxin binding (26-10 Fab; [6]): 0.8
- normalized concentration of inhibitor giving 50% inhibition of 125I-digoxin binding (26-10 Fab; normalizing glycoside digoxin): 0.9
- inhibition of binding of 125I-dig-lysine [2]: can be inhibited
- normalized concentration of inhibitor giving 50% inhibition of 125I-digoxin binding (BABS; [6]): 0.3
- normalized concentration of inhibitor giving 50% inhibition of 125I-digoxin binding (BABS; normalizing glycoside digoxin): 2.0

SMILES: C[C@]12CC[C@H](O)C[C@H]1CC[C@@H]1[C@@H]2C[C@@H](O)[C@]2(C)[C@@H](C3=CC(=O)OC3)CC[C@]12O [Digoxigenin, digoxigenin]
- normalized concentration of inhibitor giving 50% inhibition of 125I-digoxin binding (26-10 Fab; [6]): 1.0
- normalized concentration of inhibitor giving 50% inhibition of 125I-digoxin binding (26-10 Fab; normalizing glycoside digoxin): 1.2
- inhibition of binding of 125I-dig-lysine [2]: can be inhibited
- normalized concentration of inhibitor giving 50% inhibition of 125I-digoxin binding (BABS; [6]): 1.0
- normalized concentration of inhibitor giving 50% inhibition of 125I-digoxin binding (BABS; normalizing glycoside digoxin): 7.3

SMILES: C[C@H]1O[C@@H](O[C@H]2[C@@H](O)C[C@H](O[C@H]3[C@@H](O)C[C@H](O[C@H]4CC[C@@]5(C)[C@H](CC[C@@H]6[C@@H]5C[C@@H](O)[C@]5(C)[C@@H](C7=CC(=O)OC7)CC[C@]65O)C4)O[C@@H]3C)O[C@@H]2C)C[C@H](O)[C@@H]1O [Digoxin, digoxin]
- normalized concentration of inhibitor giving 50% inhibition of 125I-digoxin binding (26-10 Fab; [6]): 0.9
- normalized concentration of inhibitor giving 50% inhibition of 125I-digoxin binding (26-10 Fab; normalizing glycoside digoxin): 1.0
- inhibition of binding of 125I-dig-lysine [2]: can be inhibited
- normalized concentration of inhibitor giving 50% inhibition of 125I-digoxin binding (BABS; [6]): 0.1
- normalized concentration of inhibitor giving 50% inhibition of 125I-digoxin binding (BABS; normalizing glycoside digoxin): 1.0

SMILES: C[C@H]1O[C@@H](O[C@H]2[C@@H](O)C[C@H](O[C@H]3[C@@H](O)C[C@H](O[C@H]4CC[C@@]5(C)[C@H](CC[C@@H]6[C@@H]5CC[C@]5(C)[C@@H](C7=CC(=O)OC7)[C@@H](O)C[C@]65O)C4)O[C@@H]3C)O[C@@H]2C)C[C@H](O)[C@@H]1O [Gitoxin, gitoxin]
- normalized concentration of inhibitor giving 50% inhibition of 125I-digoxin binding (26-10 Fab; [6]): 8.1
- normalized concentration of inhibitor giving 50% inhibition of 125I-digoxin binding (26-10 Fab; normalizing glycoside digoxin): 9.6
- inhibition of binding of 125I-dig-lysine [2]: can be inhibited
- normalized concentration of inhibitor giving 50% inhibition of 125I-digoxin binding (BABS; [6]): 8.5
- normalized concentration of inhibitor giving 50% inhibition of 125I-digoxin binding (BABS; normalizing glycoside digoxin): 62

SMILES: CO[C@H]1C[C@H](O[C@H]2CC[C@@]3(C)[C@H](CC[C@@H]4[C@@H]3CC[C@]3(C)[C@@H](C5=CC(=O)OC5)[C@@H](OC(C)=O)C[C@]43O)C2)O[C@@H](C)[C@@H]1O [Oleandrin, oleandrin]
- aqueous to organic partition coefficient [3]: ~0.003
- first order polynomial (slope) of change in oleandrin concentration [4]: 0.0023 mg/mL/h
- initial flux of oleandrin (FB-sFv 26-10; BABS-containing membrane): 4.9×10^-12 gmole/sec-cm^2
- average flux of oleandrin (FB-sFv 26-10; BABS-containing membrane, 24-hour): 2.9×10^-12 gmole/sec-cm^2
- first order polynomial (slope) of change in oleandrin concentration (FB-sFv 26-10; presence of binding protein, time zero): 0.0215 mg/mL/h
- initial increase of oleandrin flux (FB-sFv 26-10; with vs without 26-10 protein): 9.3 fold
- inhibition of binding of 125I-dig-lysine [2]: can be inhibited
- organic to aqueous partition coefficient [5]: 338

SMILES: C[C@@H]1O[C@@H](O[C@H]2C[C@@H](O)[C@]3(CO)[C@H]4[C@H](O)C[C@]5(C)[C@@H](C6=CC(=O)OC6)CC[C@]5(O)[C@@H]4CC[C@]3(O)C2)[C@H](O)[C@H](O)[C@H]1O [Ouabain, ouabain]
- normalized concentration of inhibitor giving 50% inhibition of 125I-digoxin binding (26-10 Fab; [6]): 13
- normalized concentration of inhibitor giving 50% inhibition of 125I-digoxin binding (26-10 Fab; normalizing glycoside digoxin): 15
- inhibition of binding of 125I-dig-lysine [2]: can be inhibited
- normalized concentration of inhibitor giving 50% inhibition of 125I-digoxin binding (BABS; [6]): 21
- normalized concentration of inhibitor giving 50% inhibition of 125I-digoxin binding (BABS; normalizing glycoside digoxin): 150
